Values joined by “and” are separate entries in the source; they are usually repeats but may differ in a detail not shown here. Equal entries are not always repeated.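 The compound was tested at five concentrations on cells cultured in 96-well plates, with a 48-hour exposure period. The concentration for 50% growth inhibition is given as GI50. At the TGI there is no net growth.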
Legend:
Test in all cases: growth of human tumour cells (NCI), 48 h
[1] = system: SK-MEL-2 melanoma
[2] = system: NCI-H226 lung
[3] = system: MALME-3M melanoma
[4] = system: HCT-15 colon
[5] = system: UO-31 renal
[6] = system: COLO 205 colon
[7] = system: A498 renal
[8] = system: HOP-92 NSCLC
[9] = system: CCRF-CEM leukemia
[10] = system: UACC-257 melanoma
[11] = system: DU-145 prostate
[12] = system: NCI/ADR-RES ovarian
[13] = system: NCI-H23 lung
[14] = system: OVCAR-8 ovarian
[15] = system: HCT-116 colon
[16] = system: SW-620 colon
[17] = system: OVCAR-5 ovarian
[18] = system: HS 578T breast
[19] = system: M14 melanoma
[20] = system: EKVX NSCLC
[21] = system: SK-MEL-28 melanoma
[22] = system: SF-268 CNS
[23] = system: MDA-MB-435
[24] = system: A549 NSCLC
[25] = system: RXF 393 renal
[26] = system: OVCAR-3 ovarian
[27] = system: KM12 colon
[28] = system: K-562 leukemia
[29] = system: SF-539 CNS
[30] = system: SR leukemia
[31] = system: SN12C renal
[32] = system: SNB-19 CNS
[33] = system: NCI-H522 lung
[34] = system: IGROV1 ovarian
[35] = system: HCC-2998 colon
[36] = system: MCF7 breast
[37] = system: PC-3 prostate
[38] = system: MOLT-4 leukemia
[39] = system: T-47D breast
[40] = system: ACHN renal
[41] = system: 786-0 renal
[42] = system: SK-OV-3 ovarian
[43] = system: SK-MEL-5 melanoma
[44] = system: MDA-MB-231 breast
[45] = system: SF-295 CNS
[46] = system: TK-10 renal
[47] = system: HL-60(TB) leukemia
[48] = system: SNB-75 CNS
[49] = system: UACC-62 melanoma
[50] = system: HT29 colon
[51] = system: RPMI-8226 leukemia
[52] = system: LOX IMVI melanoma
[53] = system: MDA-N
[54] = system: BT-549 breast
[55] = system: OVCAR-4 ovarian
[56] = system: NCI-H460 lung
[57] = system: HOP-62 NSCLC
[58] = system: U251 CNS
[59] = system: CAKI-1 renal

CC1=C2O[C@]3(O)C=C2C(=C(O)C1=O)[C@@H]1O[C@H](CC[C@H](C)/C=C(\C)C[C@@H](C)C[C@@H]3C)[C@H](C)[C@H](O)[C@H]1C
GI50 [1]: 282 nM
TGI [1]: 851 nM and 703 nM
GI50 [2]: 935 nM
TGI [2]: 2120 nM and 2390 nM
TGI [3]: 480 nM and 334 nM
GI50 [4]: 180 nM
TGI [4]: 289 nM and 406 nM
GI50 [5]: 232 nM
TGI [5]: 548 nM and 654 nM
GI50 [6]: 165 nM
TGI [6]: 256 nM and 313 nM
GI50 [7]: 177 nM
TGI [7]: 694 nM and 2930 nM
GI50 [8]: 177 nM
TGI [8]: 273 nM and 377 nM
GI50 [9]: 33.9 nM
TGI [9]: 296 nM
GI50 [10]: 412 nM
TGI [10]: 860 nM and 2340 nM
TGI [11]: 1030 nM and 659 nM
GI50 [12]: 559 nM
TGI [12]: 1350 nM and 2680 nM
GI50 [13]: 563 nM
TGI [13]: 1170 nM and 1880 nM
GI50 [14]: 169 nM and 234 nM
TGI [14]: 472 nM and 597 nM
GI50 [15]: 201 nM
TGI [15]: 486 nM and 436 nM
TGI [16]: 3.47 µM
GI50 [17]: 767 nM
TGI [17]: 3.19 µM and 2.08 µM
TGI [18]: 1490 nM
GI50 [19]: 220 nM
TGI [19]: 363 nM and 526 nM
TGI [20]: 939 nM and 910 nM
TGI [21]: 662 nM and 588 nM
GI50 [22]: 303 nM
TGI [22]: 1140 nM and 892 nM
GI50 [23]: 199 nM
TGI [23]: 325 nM and 429 nM
GI50 [24]: 1610 nM
TGI [24]: 2.08 µM and 3.39 µM
TGI [25]: 434 nM
GI50 [26]: 187 nM
TGI [26]: 355 nM and 394 nM
GI50 [27]: 376 nM
TGI [27]: 1750 nM and 1270 nM
TGI [28]: 4.87 µM
GI50 [29]: 240 nM
TGI [29]: 384 nM and 580 nM
TGI [30]: 4.18 µM
GI50 [31]: 495 nM
TGI [31]: 2150 nM and 1940 nM
GI50 [32]: 1580 nM
TGI [32]: 1.98 µM and 3.11 µM
TGI [33]: 321 nM
GI50 [34]: 272 nM
TGI [34]: 324 nM and 664 nM
GI50 [35]: 330 nM
TGI [35]: 384 nM and 1160 nM
TGI [36]: 556 nM and 395 nM
TGI [37]: 1050 nM and 637 nM
GI50 [38]: 174 nM
TGI [38]: 2340 nM and 688 nM
GI50 [39]: 105 nM and 184 nM
TGI [39]: 230 nM and 361 nM
GI50 [40]: 182 nM
TGI [40]: 239 nM and 323 nM
GI50 [41]: 180 nM
TGI [41]: 324 nM and 342 nM
GI50 [42]: 1720 nM
TGI [42]: 2.13 µM and 3.11 µM
GI50 [43]: 777 nM
TGI [43]: 1660 nM and 1710 nM
GI50 [44]: 285 nM
TGI [44]: 352 nM and 830 nM
GI50 [45]: 1640 nM
TGI [45]: 2.3 µM and 3.11 µM
GI50 [46]: 336 nM
TGI [46]: 372 nM and 1160 nM
GI50 [47]: 203 nM
TGI [47]: 617 nM
GI50 [48]: 603 nM
TGI [48]: 897 nM and 1350 nM
GI50 [49]: 356 nM
TGI [49]: 695 nM and 1160 nM
GI50 [50]: 216 nM
TGI [50]: 529 nM and 504 nM
TGI [51]: 378 nM and 582 nM
GI50 [52]: 274 nM
TGI [52]: 793 nM and 739 nM
GI50 [53]: 204 nM
TGI [53]: 398 nM and 446 nM
GI50 [54]: 878 nM
TGI [54]: 863 nM and 2150 nM
GI50 [55]: 229 nM
TGI [55]: 560 nM and 637 nM
GI50 [56]: 1420 nM
TGI [56]: 1820 nM
GI50 [57]: 1390 nM
TGI [57]: 0.709 µM and 3.15 µM
GI50 [58]: 288 nM
TGI [58]: 1160 nM and 752 nM
GI50 [59]: 295 nM
TGI [59]: 1660 nM and 780 nM

O=C(/C=C/NC(=O)OCc1ccccc1)OCc1ccccc1
TGI [1]: > 100000 nM
TGI [2]: > 100000 nM
TGI [3]: > 100000 nM
TGI [4]: > 100000 nM
TGI [5]: > 100000 nM
TGI [6]: > 100000 nM
TGI [7]: > 100000 nM
TGI [8]: > 100000 nM
TGI [9]: > 100000 nM
TGI [10]: > 100000 nM
TGI [11]: > 100000 nM
TGI [12]: > 100000 nM
TGI [13]: > 100000 nM
TGI [14]: > 100000 nM
TGI [15]: > 100000 nM
TGI [16]: > 100 µM
TGI [17]: > 100 µM
TGI [18]: > 100000 nM
TGI [19]: > 100000 nM
TGI [20]: > 100000 nM
TGI [21]: > 100000 nM
TGI [22]: > 100000 nM
TGI [23]: > 100000 nM
TGI [24]: > 100 µM
TGI [25]: > 100000 nM
TGI [26]: > 100000 nM
TGI [27]: > 100000 nM
TGI [28]: > 100 µM
TGI [29]: > 100000 nM
TGI [30]: > 100 µM
TGI [31]: > 100000 nM
TGI [32]: > 100 µM
TGI [33]: > 100000 nM
TGI [34]: > 100000 nM
TGI [35]: > 100000 nM
TGI [36]: > 100000 nM
TGI [37]: > 100000 nM
TGI [38]: > 100000 nM
TGI [39]: > 100000 nM
TGI [40]: > 100000 nM
TGI [41]: > 100000 nM
TGI [42]: > 100 µM
TGI [43]: > 100000 nM
TGI [44]: > 100000 nM
TGI [45]: > 100 µM
TGI [46]: > 100000 nM
TGI [47]: > 100000 nM
TGI [48]: > 100000 nM
TGI [49]: > 100000 nM
TGI [50]: > 100000 nM
TGI [51]: > 100000 nM
TGI [52]: > 100000 nM
TGI [53]: > 100000 nM
TGI [54]: > 100000 nM
TGI [55]: > 100000 nM
TGI [56]: > 100000 nM
TGI [57]: > 100 µM
TGI [58]: > 100000 nM
TGI [59]: > 100000 nM

From PubChem BioAssay (NCI)
